The values that follow are results of earlier work, collected in patent publication US20140162261A1, “DETECTION KIT FOR IDENTIFYING GENOTYPE IN DEPRESSION PATIENTS AND METHOD OF USING THE SAME” (priority 2012, published 2014).

Each structure is given as a SMILES string.

One series has as its system depression patients. Conditions: SSRIs in combination with low-dose risperidone (0.5-1 mg/day), in 1-2 days.
For series [1] the following is noted: oral administration.
Series [2] concerns the target T1, striatal dopamine D2 receptors (Homo sapiens, UniProt P14416).
T1 construct: host or cells: striatum (in vivo)
The conditions noted are these: 4 mg dose.

T1 sequence (P14416 whole entry): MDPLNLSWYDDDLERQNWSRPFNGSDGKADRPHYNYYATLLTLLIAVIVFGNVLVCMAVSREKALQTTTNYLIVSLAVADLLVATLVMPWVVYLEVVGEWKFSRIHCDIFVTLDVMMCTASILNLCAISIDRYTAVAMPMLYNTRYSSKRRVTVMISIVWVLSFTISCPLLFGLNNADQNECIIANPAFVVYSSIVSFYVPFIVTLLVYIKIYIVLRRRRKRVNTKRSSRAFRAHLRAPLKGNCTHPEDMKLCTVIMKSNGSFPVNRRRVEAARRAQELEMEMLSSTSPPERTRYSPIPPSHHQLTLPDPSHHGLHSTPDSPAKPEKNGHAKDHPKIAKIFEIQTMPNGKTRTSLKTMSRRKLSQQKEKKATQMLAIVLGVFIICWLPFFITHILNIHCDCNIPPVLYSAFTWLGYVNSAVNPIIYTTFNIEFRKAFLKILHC

In the case of `Cc1nc2n(c(=O)c1CCN1CCC(c3noc4cc(F)ccc34)CC1)CCCC2` [Risperidone], in the series on α2-adrenergic receptors, the “affinity for α2-adrenergic receptors” value is given as “low affinity”. Further, in the series with depression patients, the “improvement of patients' symptoms” value is recorded as “significantly improve most of the patient's symptoms”. The “binding with cholinergic receptors” value in the series with cholinergic receptors was “does not bind”. Moreover, the “effect of food on digestion (absorption)” value in series [1] is on record as “not affected by food”. In addition, the “blockade of striatal dopamine D2 receptors” value in series [2] is 70-80%.
